From patent publication US8461329B2, “Isoquinoline derivative” (Taisho Pharmaceutical Co., Ltd., priority 2008, dated 2013) come the findings set out here.

This assay concerns the target T1, CRTH2 (KB8 cells) (Homo sapiens, UniProt Q9Y5Y4).
T1 construct: host or cells: KB8 cells (human CRTH2 expression cell)
T1 sequence (Q9Y5Y4 1-395): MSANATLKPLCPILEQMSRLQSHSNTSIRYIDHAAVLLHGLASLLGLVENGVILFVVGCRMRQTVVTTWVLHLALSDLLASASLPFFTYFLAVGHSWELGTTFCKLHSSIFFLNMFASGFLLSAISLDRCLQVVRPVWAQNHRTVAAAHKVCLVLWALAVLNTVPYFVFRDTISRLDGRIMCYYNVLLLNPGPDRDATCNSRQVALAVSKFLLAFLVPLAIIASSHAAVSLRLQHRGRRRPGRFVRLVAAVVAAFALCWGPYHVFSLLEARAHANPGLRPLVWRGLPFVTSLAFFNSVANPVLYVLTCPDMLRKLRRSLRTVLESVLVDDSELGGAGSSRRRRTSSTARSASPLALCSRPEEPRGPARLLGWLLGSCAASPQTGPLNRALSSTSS
In words: CRTH2 antagonist test (PGD2-induced intracellular calcium ion concentration increase in KB8 cells). Format: cell-based. How it is done:
The antagonist activity of the compound of the present invention was considered by using the intracellular calcium ion concentration increase reaction induced when the prostaglandin D2 was added to KB8 cells.
Fluo-4-AM (4-(6-acetoxymethoxy-2,7-difluoro-3-oxo-9-xanthenyl)-4′-methyl-2,2′-(ethylenedioxy)dianilide-N,N,N′,N′-tetraacetic acid tetrakis(acetoxymethyl) ester (SIGMA, final concentration: 1 μM) was added to KB8 cells, and the cells were incubated at 37° C. for 30 min, washed with phosphate buffer (Invitrogen), and then suspended in Hank's balanced salt solution (Invitrogen)) containing a reaction buffer solution (10 mM HEPES (Invitrogen), and 1 mM calcium chloride (SIGMA). The suspension was dispensed in a 96 well plate (Nunc) so that 2×10^5 cells/well were placed, and the compound of the present invention and PGD2 (final concentration: 100 nM) were added. The fluorescence intensity thereof was measured over time by using FDSS6000 (Hamamatsu Photonics), and thus the maximum fluorescence intensity value “d” was obtained. The same procedure was carried out in the absence of the compound, and the maximum fluorescence intensity value “e” was obtained; and the same procedure was carried out in the absence of the compound and […], and the maximum fluorescence intensity value “f” was obtained.
The calcium ion concentration increase inhibition rate of a compound was calculated by the following calculation formula: Inhibitory rate(%)=[1−(d−f)/(e−f)]×100
That is to say, by using calcium ion concentration increase inhibitory rates of compounds to be tested having various concentrations, the IC50 value was calculated according to a dose-dependent inhibition curve analyzed by using XLfit (IDBS) as a data analysis software, and the value was defined as an indicator of the antagonist activity. In Tables, A denotes an inhibitory activity showing the IC50 value of less than 50 nM; B denotes an inhibitory activity showing the IC50 value of 50 nM or greater and less than 500 nM; C denotes an inhibitory activity showing the IC50 value of 500 nM or greater and less than 1000 nM; and D denotes an inhibitory activity showing the IC50 value of 1000 nM or greater.
For orientation: A change in cytosolic calcium serves as a functional read-out for many receptors and channels.

The mark [1] stands for this setting: PGD2 final concentration 100 nM, Fluo-4-AM fluorescence, read-out: antagonist activity (IC50 value, inhibition of calcium ion concentration increase).

Read-outs that look alike come from different tables or passages of the source.

On to `COc1ccccc1C(=O)Nc1ccc(C(=O)c2ncc(CC(=O)O)c3ccccc23)cc1` [Example 40], for which the IC50 under setting [1] is no less than 1000 nM.

`O=C(O)Cc1cnc(C(=O)c2ccc(NC(=O)C3CCCCC3)cc2)c2ccccc12` [Example 76]: the IC50 under setting [1] lay in the range of 50 to 500 nM.

With `O=C(O)Cc1cnc(C(=O)c2ccc(NC(=O)COc3ccc(Cl)cc3)cc2)c2ccccc12` [Example 87], the IC50 under setting [1] is 50 to 500 nM.

Regarding `CS(=O)(=O)c1ccc(C(=O)Nc2ccc(C(=O)c3ncc(CC(=O)O)c4ccccc34)cc2)cc1` [Example 74], under setting [1], the IC50 is 50 to 500 nM.

For `O=C(O)Cc1cnc(C(=O)c2ccc(NC(=O)c3cccc(Cl)c3Cl)cc2)c2ccccc12` [Example 30], the IC50 under setting [1] was 500 to 1000 nM.

For `O=C(O)Cc1cnc(C(=O)c2ccc(NC(=O)c3ccc(C4CCCCC4)cc3)cc2)c2ccccc12` [Example 114], the IC50 under setting [1] is less than 50 nM.

For `COc1cc(C(=O)Nc2ccc(C(=O)c3ncc(CC(=O)O)c4ccccc34)cc2)ccc1C` [Example 100], under setting [1], the IC50 is less than 50 nM.

For the molecule `O=C(O)Cc1cnc(C(=O)c2ccc(NC(=O)c3ccc(F)c(F)c3)cc2)c2ccccc12` [Example 35], the IC50 under setting [1] was less than 50 nM.

Turning to `O=C(O)Cc1cnc(Cc2ccc(C(=O)NCCc3ccc(Oc4ccccc4)cc3)cc2)c2ccccc12` [Example 195], under setting [1], the IC50 was less than 50 nM.

`Cc1ccc(CCNC(=O)c2ccc(Cc3ncc(CC(=O)O)c4ccccc34)cc2)c(C)c1` [Example 208]: under setting [1], the IC50 is less than 50 nM.

For `O=C(O)Cc1cnc(Cc2ccc(C(=O)NCC3(c4ccc(Cl)cc4)CC3)cc2)c2ccccc12` [Example 246], under setting [1], the IC50 fell in the range of 50 to 500 nM.

For the molecule `O=C(O)Cc1cnc(Cc2ccc(C(=O)NCCc3cccc(Cl)c3)cc2)c2ccccc12` [Example 155], the IC50 under setting [1] was less than 50 nM.

`C=Cc1ccc(C(=O)Nc2ccc(C(=O)c3ncc(CC(=O)O)c4ccccc34)cc2)cc1` [Example 64]: under setting [1], the IC50 is less than 50 nM.

For `O=C(O)Cc1cnc(Cc2ccc(C(=O)NCCc3ccc([N+](=O)[O-])cc3)cc2)c2ccccc12` [Example 174], the IC50 under setting [1] lay within 50 to 500 nM.

In the case of `O=C(O)Cc1cnc(Cc2ccc(C(=O)NCCc3cccc(Cl)c3Cl)cc2)c2ccccc12` [Example 226], the IC50 under setting [1] is less than 50 nM.

As to `COc1ccc(CCNC(=O)c2ccc(Cc3ncc(CC(=O)O)c4ccccc34)cc2)cc1` [Example 156], under setting [1], the IC50 is 50 to 500 nM.

For `O=C(O)Cc1cnc(C(=O)c2ccc(NC(=O)c3cc4ccccc4s3)cc2)c2ccccc12` [Example 119], the IC50 under setting [1] was less than 50 nM.

As for `COc1ccc(CCNC(=O)c2ccc(Cc3ncc(CC(=O)O)c4ccccc34)cc2)cc1F` [Example 232], the IC50 under setting [1] is less than 50 nM.

Regarding `O=C(Cc1cnc(Cc2ccc(C(=O)NCCc3ccc(Cl)cc3)cc2)c2ccccc12)NO` [Example 258, N-[2-(4-chlorophenyl)ethyl]-4-({4-[2-(hydroxyamino)-2-oxoethyl]isoquinolin-1-yl}methyl)benzamide], under setting [1], the IC50 was no less than 1000 nM.

On to `O=C(O)Cc1cnc(C(=O)c2ccc(NC(=O)c3c[nH]cn3)cc2)c2ccccc12` [Example 97], for which, under setting [1], the IC50 was no less than 1000 nM.

As to `O=C(O)Cc1cnc(C(=O)c2ccc(NC(=O)c3ccc(Br)cc3)cc2)c2ccccc12` [Example 32], the IC50 under setting [1] was less than 50 nM.

As to `O=C(O)Cc1cnc(Cc2ccc(C(=O)NCCc3ccc(Cl)cc3)cc2)c2ccc(F)cc12` [Example 253, [1-(4-{[2-(4-chlorophenyl)ethyl]carbamoyl}benzyl)-6-fluoroisoquinoline-4-yl]acetic acid], the IC50 under setting [1] is less than 50 nM.

For `O=C(O)Cc1cnc(Cc2ccc(C(=O)NCCc3cccc(Cl)c3F)cc2)c2ccccc12` [Example 244], under setting [1], the IC50 was less than 50 nM.

Consider `O=C(O)Cc1cnc(Cc2ccc(C(=O)NCCC3CCCCC3)cc2)c2ccccc12` [Example 187], for which, under setting [1], the IC50 is less than 50 nM.

Turning to `C/C(=C\c1ccccc1)C(=O)Nc1ccc(C(=O)c2ncc(CC(=O)O)c3ccccc23)cc1` [Example 78], the IC50 under setting [1] is less than 50 nM.

As for `O=C(O)Cc1cnc(C(=O)c2ccc(C(=O)Nc3ccc(Cl)cc3)cc2)c2ccccc12` [Example 140], under setting [1], the IC50 was less than 50 nM.

In the case of `Cc1cc(C)cc(C(=O)Nc2ccc(C(=O)c3ncc(CC(=O)O)c4ccccc34)cc2)c1` [Example 103], under setting [1], the IC50 was less than 50 nM.

`O=C(O)Cc1cnc(C(=O)c2ccc(NC(=O)c3cccc4ccccc34)cc2)c2ccccc12` [Example 46]: under setting [1], the IC50 was in the range of 50 to 500 nM.

For the molecule `O=C(O)Cc1cnc(Cc2ccc(C(=O)NCCc3ccc(C(F)(F)F)cc3)cc2)c2ccccc12` [Example 201], the IC50 by setting is: (PGD2 100 nM, Fluo-4 calcium fluorescence, read-out: CRTH2 antagonist activity IC50 value) 20 nM; under setting [1], less than 50 nM.

Turning to `O=C(O)Cc1cnc(Cc2ccc(C(=O)NCCc3ccc(O)cc3)cc2)c2ccccc12` [Example 196], under setting [1], the IC50 is 500 to 1000 nM.

Take `O=C(O)Cc1cnc(C(=O)c2ccc(NC(=O)c3ccc4ncccc4c3)cc2)c2ccccc12` [Example 67]: the IC50 under setting [1] lay in the range of 50 to 500 nM.

For `O=C(O)Cc1cnc(C(=O)c2ccc(NC(=O)Cc3c[nH]c4ccccc34)cc2)c2ccccc12` [Example 126], the IC50 under setting [1] is less than 50 nM.

As for `COc1ccc(C(=O)Nc2ccc(C(=O)c3ncc(CC(=O)O)c4ccccc34)cc2)cc1Cl` [Example 108], the IC50 under setting [1] was less than 50 nM.

On to `CCCCCCc1ccc(CCNC(=O)c2ccc(Cc3ncc(CC(=O)O)c4ccccc34)cc2)cc1` [Example 238], for which the IC50 under setting [1] was less than 50 nM.

With `COc1cccc(CCNC(=O)c2ccc(Cc3ncc(CC(=O)O)c4ccccc34)cc2)c1` [Example 197], the IC50 under setting [1] lay in the range of 50 to 500 nM.

With `Cc1ccc(F)cc1C(=O)Nc1ccc(C(=O)c2ncc(CC(=O)O)c3ccccc23)cc1` [Example 62], the IC50 under setting [1] was 50 to 500 nM.

Regarding `Cc1ccc(Cl)c(C(=O)Nc2ccc(C(=O)c3ncc(CC(=O)O)c4ccccc34)cc2)c1F` [Example 49], the IC50 under setting [1] is no less than 1000 nM.

Take `O=C(O)Cc1cnc(Cc2ccc(C(=O)NCCc3ccc(Cl)cc3Cl)cc2)c2ccccc12` [Example 180]: the IC50 under setting [1] was less than 50 nM.

Turning to `Cc1cccc(C(=O)Nc2ccc(C(=O)c3ncc(CC(=O)O)c4ccccc34)cc2)c1` [Example 73], the IC50 under setting [1] was less than 50 nM.

In the case of `O=C(O)Cc1cnc(C(=O)c2ccc(NC(=O)c3cnc4ccccc4n3)cc2)c2ccccc12` [Example 86], the IC50 under setting [1] was 50 to 500 nM.

On to `O=C(O)Cc1cnc(C(=O)c2ccc(NC(=O)CC34CC5CC(CC(C5)C3)C4)cc2)c2ccccc12` [Example 53], for which the IC50 under setting [1] was in the range of 50 to 500 nM.

Turning to `O=C(O)Cc1cnc(Cc2ccc(C(=O)NCCc3cccc(F)c3)cc2)c2ccccc12` [Example 182], the IC50 under setting [1] was 50 to 500 nM.

For the molecule `O=C(O)Cc1cnc(C(=O)c2ccc(NC(=O)C3CCOCC3)cc2)c2ccccc12` [Example 81], under setting [1], the IC50 is no less than 1000 nM.

With `Cc1ccc(C)c(CCNC(=O)c2ccc(Cc3ncc(CC(=O)O)c4ccccc34)cc2)c1` [Example 169], under setting [1], the IC50 was in the range of 50 to 500 nM.

`O=C(O)Cc1cnc(C(=O)c2ccc(NC(=O)C3Cc4ccccc4C3)cc2)c2ccccc12` [Example 60]: under setting [1], the IC50 was 50 to 500 nM.

With `O=C(O)Cc1cnc(C(=O)c2ccc(NC(=O)c3ccc(Cl)cc3Cl)cc2)c2ccccc12` [Example 41], the IC50 under setting [1] fell in the range of 50 to 500 nM.

For `COc1cc(CCNC(=O)c2ccc(Cc3ncc(CC(=O)O)c4ccccc34)cc2)cc(OC)c1O` [Example 209], under setting [1], the IC50 was no less than 1000 nM.

Consider `O=C(O)Cc1cnc(Cc2ccc(C(=O)NCCc3cc4ccccc4o3)cc2)c2ccccc12` [Example 249], for which the IC50 under setting [1] was less than 50 nM.

Consider `O=C(O)Cc1cnc(Cc2ccc(C(=O)NCCC3=CCCCC3)cc2)c2ccccc12` [Example 188], for which, under setting [1], the IC50 was in the range of 50 to 500 nM.

As to `O=C(O)Cc1cnc(C(=O)c2ccc(NC(=O)c3cccc(Cl)c3F)cc2)c2ccccc12` [Example 70], the IC50 under setting [1] fell in the range of 50 to 500 nM.

Consider `CCCOc1ccc(C(=O)Nc2ccc(C(=O)c3ncc(CC(=O)O)c4ccccc34)cc2)cc1` [Example 110], for which, under setting [1], the IC50 is less than 50 nM.

On to `O=C(O)Cc1cnc(C(=O)c2ccc(NC(=O)c3cc(F)c(F)c(F)c3F)cc2)c2ccccc12` [Example 118], for which the IC50 under setting [1] lay in the range of 500 to 1000 nM.

In the case of `O=C(O)Cc1cnc(Cc2ccc(C(=O)NCCc3ccc(F)c(Cl)c3)cc2)c2ccccc12` [Example 210], the IC50 under setting [1] is less than 50 nM.

In the case of `O=C(O)Cc1cnc(Cc2ccc(C(=O)NCCc3cc(F)cc(C(F)(F)F)c3)cc2)c2ccccc12` [Example 215], the IC50 under setting [1] fell in the range of 50 to 500 nM.
